Values of other authors, collected in patent publication EP4115885A1 (Charité - Universitätsmedizin Berlin, priority 2021, dated 2023).

Assays:
[1] = human, in vivo

Question: With `C[C@@H]1CN(Cc2ccc(F)cc2)CCN1C(=O)COc1ccc(Cl)cc1NC(N)=O` [BAY 86-5277, N-[5-chloro-2-[2-[(2R)-4-[(4-fluorophenyl)methyl]-2-methyl-1-piperazinyl]-2-oxoethoxy]phenyl]-urea] as the compound, how does the “effect of blockade of CCR1” value (model of sepsis) read?
Answer: The value was “beneficial”.

Question: And the tolerability [1]?
Answer: The tolerability was “generally well tolerated”.
